Patent US20100056524A1, “Compound” (priority 2008, published 2010)
Structures can show the parent of a compound that is named as a salt.

target: T1, TBK1 (Homo sapiens, UniProt Q9UHD2); experiment: TBK1 protein kinase assay ([γ-33P]ATP, P81 filterplates); assay type: biochemical; conditions: 50 μM ATP; read-out: Potency (TBK1 IC50 potency score)
T1 construct: All protein kinases were of human origin and encoded full length proteins, unless indicated otherwise; His6; made in house; host or cells: insect Sf21 cells
T1 sequence (Q9UHD2 1-729): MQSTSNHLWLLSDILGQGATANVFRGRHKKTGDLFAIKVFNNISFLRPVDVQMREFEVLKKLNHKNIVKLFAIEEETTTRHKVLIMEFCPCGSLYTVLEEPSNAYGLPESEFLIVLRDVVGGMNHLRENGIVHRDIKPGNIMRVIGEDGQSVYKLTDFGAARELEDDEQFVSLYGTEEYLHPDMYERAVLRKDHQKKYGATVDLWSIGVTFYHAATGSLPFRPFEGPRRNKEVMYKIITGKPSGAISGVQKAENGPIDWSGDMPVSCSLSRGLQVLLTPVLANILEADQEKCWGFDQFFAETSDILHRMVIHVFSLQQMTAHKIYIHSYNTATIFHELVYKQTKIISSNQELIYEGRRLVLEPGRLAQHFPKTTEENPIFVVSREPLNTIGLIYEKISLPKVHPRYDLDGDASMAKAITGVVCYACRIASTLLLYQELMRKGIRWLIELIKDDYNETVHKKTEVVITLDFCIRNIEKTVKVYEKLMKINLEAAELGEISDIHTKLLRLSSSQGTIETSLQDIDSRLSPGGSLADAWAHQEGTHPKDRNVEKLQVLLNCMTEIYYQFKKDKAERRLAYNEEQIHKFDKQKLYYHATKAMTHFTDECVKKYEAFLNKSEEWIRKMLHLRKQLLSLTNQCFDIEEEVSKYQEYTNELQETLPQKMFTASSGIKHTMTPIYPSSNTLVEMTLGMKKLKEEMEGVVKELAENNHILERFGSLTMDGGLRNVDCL
Method in brief: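 Human TBK1 assayed for 30 min with peptide substrate (300 μM), 50 μM [γ-33P]ATP and 10 mM magnesium acetate in 50 mM Tris/HCl pH 7.5, 0.1 mM EGTA, 0.1% 2-mercaptoethanol. Stopped with orthophosphoric acid and counted on P81 filters. IC50 from 10 compound concentrations.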

First: CN(CCCNC(=O)C1CCC1)c1nc(Nc2cccc(F)c2)ncc1C1CC1 [Example 106, Cyclobutanecarboxylic acid (3-{[5-cyclopropyl-2-(3-fluoro-phenylamino)-pyrimidin-4-yl]-methyl-amino}-propyl)-amide]
Second: CN(CCCNc1nc(Nc2cccc(F)c2)ncc1C1CC1)C(=O)C1CCC1 [Example 107, Cyclobutanecarboxylic acid {3-[5-cyclopropyl-2-(3-fluoro-phenylamino)-pyrimidin-4-ylamino]-propyl}-methyl-amide]
The IC50 of the first is higher: 100 to 1000 nM for the first, under 100 nM for the second. The second is the more potent here.

Compared with `CCCC(=O)NCCCNc1nc(Nc2cccc(F)c2)ncc1C1CC1` [Example 108], `CN1CCN(CCCNc2nc(Nc3cccc(F)c3)ncc2C2CC2)C1=O` [Example 112, 1-{3-[5-Cyclopropyl-2-(3-fluoro-phenylamino)-pyrimidin-4-ylamino]-propyl}-3-methyl-imidazolidin-2-one] is higher in IC50: under 100 nM for the first, 100 to 1000 nM for the second.

`CN(CCCNc1nc(Nc2ccc(N3CCOCC3)nc2)ncc1C1CC1)C(=O)C1CCC1` [Example 109, Cyclobutanecarboxylic acid {3-[5-cyclopropyl-2-(6-morpholin-4-yl-pyridin-3-ylamino)-pyrimidin-4-ylamino]-propyl}-methyl-amide] and `CC(c1cccc(Nc2ncc(C3CC3)c(NCCCNC(=O)C3CCC3)n2)c1)N1CCOCC1` (stereo not shown) [Example 123, Cyclobutanecarboxylic acid (3-{5-cyclopropyl-2-[3-(1-morpholin-4-yl-ethyl)-phenylamino]-pyrimidin-4-ylamino}-propyl)-amide] cannot be ordered by IC50: under 100 nM for the first, under 100 nM for the second.

`O=C1CCCCN1CCCNc1nc(Nc2cccc(F)c2)ncc1C1CC1` [Example 110] and `CC1(C)CCN(CCCNc2nc(Nc3cccc(F)c3)ncc2C2CC2)C1=O` [Example 113, 1-{3-[5-Cyclopropyl-2-(3-fluoro-phenylamino)-pyrimidin-4-ylamino]-propyl}-3,3-dimethyl-pyrrolidin-2-one] fall in the same range of IC50: 100 to 1000 nM for the first, 100 to 1000 nM for the second.

`Cc1cccn(CCCNc2nc(Nc3cccc(F)c3)ncc2C2CC2)c1=O` [Example 111, 1-{3-[5-Cyclopropyl-2-(3-fluoro-phenylamino)-pyrimidin-4-ylamino]-propyl}-3-methyl-H-pyridin-2-one] and `O=c1c(C(F)(F)F)cccn1CCCNc1nc(Nc2cccc(F)c2)ncc1C1CC1` [Example 114, 1-{3-[5-Cyclopropyl-2-(3-fluoro-phenylamino)-pyrimidin-4-ylamino]-propyl}-3-trifluoromethyl-1H-pyridin-2-one] fall in the same range of IC50: 100 to 1000 nM for the first, 100 to 1000 nM for the second.

`Cn1cc(-c2ccc(Nc3ncc(C4CC4)c(NCCCNC(=O)C4CCC4)n3)cn2)cn1` [Example 115, Cyclobutanecarboxylic acid (3-{5-cyclopropyl-2-[6-(1-methyl-1H-pyrazol-4-yl)-pyridin-3-ylamino]-pyrimidin-4-ylamino}-propyl)-amide] and `O=C(NCCCNc1nc(Nc2ccc(-c3cn[nH]c3)nc2)ncc1C1CC1)C1CCC1` [Example 118, Cyclobutanecarboxylic acid (3-{5-cyclopropyl-2-[6-(1H-pyrazol-4-yl)-pyridin-3-ylamino]-pyrimidin-4-ylamino}-propyl)-amide] cannot be ordered by IC50: under 100 nM for the first, under 100 nM for the second.

`O=C(NCCCNc1nc(Nc2ccc(-c3cncnc3)nc2)ncc1C1CC1)C1CCC1` [Example 116, Cyclobutanecarboxylic acid {3-[5-cyclopropyl-2-(6-pyrimidin-5-yl-pyridin-3-ylamino)-pyrimidin-4-ylamino]-propyl}-amide] and `O=C(NCCCNc1nc(Nc2ccc(-c3cccnc3)nc2)ncc1C1CC1)C1CCC1` [Example 120, Cyclobutanecarboxylic acid {3-[2-([2,3′]bipyridinyl-5-ylamino)-5-cyclopropyl-pyrimidin-4-ylamino]-propyl}-amide] cannot be ordered by IC50: under 100 nM for the first, under 100 nM for the second.

`O=C(NCCCNc1nc(Nc2cccc(-c3cncnc3)c2)ncc1C1CC1)C1CCC1` [Example 117, Cyclobutanecarboxylic acid {3-[5-cyclopropyl-2-(3-pyrimidin-5-yl-phenylamino)-pyrimidin-4-ylamino]-propyl}-amide] and `O=C(NCCCNc1nc(Nc2cccc(-c3ccncc3)c2)ncc1C1CC1)C1CCC1` [Example 121, Cyclobutanecarboxylic acid {3-[5-cyclopropyl-2-(3-pyridin-4-yl-phenylamino)-pyrimidin-4-ylamino]-propyl}-amide] cannot be ordered by IC50: under 100 nM for the first, under 100 nM for the second.

`O=C(NCCCNc1nc(Nc2ccc(-c3ccncc3)nc2)ncc1C1CC1)C1CCC1` [Example 119, Cyclobutanecarboxylic acid {3-[2-([2,4′]bipyridinyl-5-ylamino)-5-cyclopropyl-pyrimidin-4-ylamino]-propyl}-amide] and `O=C(NCCCNc1nc(Nc2ccc3cn[nH]c3c2)ncc1C1CC1)C1CCC1` [Example 129, Cyclobutanecarboxylic acid {3-[5-cyclopropyl-2-(1H-indazol-6-ylamino)-pyrimidin-4-ylamino]-propyl}-amide. Hydrochloride] cannot be ordered by IC50: under 100 nM for the first, under 100 nM for the second.

`CN1CCN(Cc2cccc(Nc3ncc(C4CC4)c(NCCCNC(=O)C4CCC4)n3)c2)CC1` [Example 122, Cyclobutanecarboxylic acid (3-{5-cyclopropyl-2-[3-(4-methyl-piperazin-1-ylmethyl)-phenylamino]-pyrimidin-4-ylamino}-propyl)-amide] and `CN1CCN(C(=O)Cc2cccc(Nc3ncc(C4CC4)c(NCCCNC(=O)C4CCC4)n3)c2)CC1` [Example 127, Cyclobutanecarboxylic acid [3-(5-cyclopropyl-2-{3-[2-(4-methyl-piperazin-1-yl)-2-oxo-ethyl]-phenylamino}-pyrimidin-4-ylamino)-propyl]-amide] cannot be ordered by IC50: under 100 nM for the first, under 100 nM for the second.

`O=C(NCCCNc1nc(Nc2cccc(C(=O)N3CCCC3)c2)ncc1C1CC1)C1CCC1` [Example 124, Cyclobutanecarboxylic acid (3-{5-cyclopropyl-2-[3-(pyrrolidine-1-carbonyl)-phenylamino]-pyrimidin-4-ylamino}-propyl)-amide] and `CN(C)[C@H]1CCN(C(=O)c2cccc(Nc3ncc(C4CC4)c(NCCCNC(=O)C4CCC4)n3)c2)C1` [Example 125, Cyclobutanecarboxylic acid (3-{5-cyclopropyl-2-[3-((S)-3-dimethylamino-pyrrolidine-1-carbonyl)-phenylamino]-pyrimidin-4-ylamino}-propyl)-amide] cannot be ordered by IC50: under 100 nM for the first, under 100 nM for the second.

`CN(C)[C@@H]1CCN(C(=O)c2cccc(Nc3ncc(C4CC4)c(NCCCNC(=O)C4CCC4)n3)c2)C1` [Example 126, Cyclobutanecarboxylic acid (3-{5-cyclopropyl-2-[3-((R)-3-dimethylamino-pyrrolidine-1-carbonyl)-phenylamino]-pyrimidin-4-ylamino}-propyl)-amide] and `CN(C)C1CCN(C(=O)Cc2cccc(Nc3ncc(C4CC4)c(NCCCNC(=O)C4CCC4)n3)c2)CC1` [Example 128, Cyclobutanecarboxylic acid [3-(5-cyclopropyl-2-{3-[2-(4-dimethylamino-piperidin-1-yl)-2-oxo-ethyl]-phenylamino}-pyrimidin-4-ylamino)-propyl]-amide] cannot be ordered by IC50: under 100 nM for the first, under 100 nM for the second.

`O=C(NCCCNc1nc(Nc2ccc3[nH]ncc3c2)ncc1C1CC1)C1CCC1` [Example 130, Cyclobutanecarboxylic acid {3-[5-cyclopropyl-2-(1H-indazol-5-ylamino)-pyrimidin-4-ylamino]-propyl}-amide] was tested, and the IC50 was under 100 nM.
